Assay results published in patent publication US20100137449A1, “SUBSTITUTED 1,3-CYCLOPENTADIONE MULTI-TARGET PROTEIN KINASE MODULATORS OF CANCER, ANGIOGENESIS AND THE INFLAMMATORY PATHWAYS ASSOCIATED THEREWITH” (METAPROTEOMICS, LLC, priority 2007, published 2010).

What was measured:
Assay in all cases: KinaseProfiler Assay
PKCα(h) = PKCα(h) (Homo sapiens, UniProt P17252)
JAK3(h) = molecular target: T1, JAK3(h) (Homo sapiens, UniProt P52333)
T1 sequence (P52333 1-1124): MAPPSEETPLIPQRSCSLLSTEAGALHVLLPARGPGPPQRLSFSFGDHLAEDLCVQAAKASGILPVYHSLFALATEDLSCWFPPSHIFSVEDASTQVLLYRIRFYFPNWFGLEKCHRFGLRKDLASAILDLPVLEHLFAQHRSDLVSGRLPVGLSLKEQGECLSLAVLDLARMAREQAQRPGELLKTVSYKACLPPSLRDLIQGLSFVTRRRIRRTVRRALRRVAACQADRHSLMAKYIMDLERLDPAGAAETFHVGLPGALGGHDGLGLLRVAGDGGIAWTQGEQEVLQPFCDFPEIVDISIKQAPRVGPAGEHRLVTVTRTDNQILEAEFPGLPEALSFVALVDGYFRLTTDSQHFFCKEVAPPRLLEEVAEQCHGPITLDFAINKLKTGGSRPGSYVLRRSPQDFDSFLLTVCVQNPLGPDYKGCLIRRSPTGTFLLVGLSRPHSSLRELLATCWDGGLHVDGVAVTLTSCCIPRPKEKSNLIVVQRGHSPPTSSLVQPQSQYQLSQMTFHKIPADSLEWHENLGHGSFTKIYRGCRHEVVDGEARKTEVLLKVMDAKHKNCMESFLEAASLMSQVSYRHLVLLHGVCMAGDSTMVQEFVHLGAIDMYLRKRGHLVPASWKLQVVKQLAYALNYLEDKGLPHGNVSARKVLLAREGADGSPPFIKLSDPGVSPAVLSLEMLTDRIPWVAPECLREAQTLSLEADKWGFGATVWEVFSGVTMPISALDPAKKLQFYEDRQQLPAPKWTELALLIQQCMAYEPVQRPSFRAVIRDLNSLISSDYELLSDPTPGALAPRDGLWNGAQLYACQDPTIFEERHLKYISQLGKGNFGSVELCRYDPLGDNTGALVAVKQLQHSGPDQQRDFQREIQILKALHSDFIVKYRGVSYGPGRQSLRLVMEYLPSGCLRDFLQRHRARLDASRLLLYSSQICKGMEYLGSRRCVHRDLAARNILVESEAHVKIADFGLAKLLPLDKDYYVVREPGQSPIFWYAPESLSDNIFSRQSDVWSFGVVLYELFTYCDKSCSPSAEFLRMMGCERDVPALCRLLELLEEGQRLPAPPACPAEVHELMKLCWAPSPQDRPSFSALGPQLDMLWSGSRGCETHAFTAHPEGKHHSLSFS

ACK1(h) = ACK1(h) (Homo sapiens, UniProt Q07912)
Met(h) = Met(h) (Homo sapiens, UniProt P08581)
CaMKI(h) = CaMKI(h) (Homo sapiens, UniProt Q14012)
PAK6(h) = PAK6(h) (Homo sapiens, UniProt Q9NQU5)
cKit(D816V)(h) = cKit(D816V)(h) (Homo sapiens, UniProt P10721, D816V)
MLCK(h) = molecular target: MLCK(h)
Abl(H396P)(h) = Abl(H396P)(h) (Homo sapiens, UniProt P00519, H396P)
PAK3(h) = PAK3(h) (Homo sapiens, UniProt O75914)
MSSK1(h) = MSSK1(h) (Homo sapiens, UniProt Q9UPE1)
Chain of MSSK1(h) (Q9UPE1 whole entry): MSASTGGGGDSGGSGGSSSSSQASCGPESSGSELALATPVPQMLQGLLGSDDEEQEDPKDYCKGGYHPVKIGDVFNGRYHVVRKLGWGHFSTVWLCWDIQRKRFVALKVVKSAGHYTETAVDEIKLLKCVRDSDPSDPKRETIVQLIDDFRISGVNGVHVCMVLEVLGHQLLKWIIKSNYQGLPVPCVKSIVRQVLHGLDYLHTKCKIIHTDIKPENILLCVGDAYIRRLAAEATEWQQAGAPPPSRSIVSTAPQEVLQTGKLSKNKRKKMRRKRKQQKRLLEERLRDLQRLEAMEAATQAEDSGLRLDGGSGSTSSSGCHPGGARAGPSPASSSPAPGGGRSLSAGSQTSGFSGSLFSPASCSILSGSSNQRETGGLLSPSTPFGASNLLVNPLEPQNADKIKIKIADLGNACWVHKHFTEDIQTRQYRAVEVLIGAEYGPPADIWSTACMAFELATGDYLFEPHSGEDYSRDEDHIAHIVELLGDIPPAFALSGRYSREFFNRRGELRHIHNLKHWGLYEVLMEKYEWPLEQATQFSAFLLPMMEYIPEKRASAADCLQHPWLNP

Chain of PAK6(h) (Q9NQU5 whole entry): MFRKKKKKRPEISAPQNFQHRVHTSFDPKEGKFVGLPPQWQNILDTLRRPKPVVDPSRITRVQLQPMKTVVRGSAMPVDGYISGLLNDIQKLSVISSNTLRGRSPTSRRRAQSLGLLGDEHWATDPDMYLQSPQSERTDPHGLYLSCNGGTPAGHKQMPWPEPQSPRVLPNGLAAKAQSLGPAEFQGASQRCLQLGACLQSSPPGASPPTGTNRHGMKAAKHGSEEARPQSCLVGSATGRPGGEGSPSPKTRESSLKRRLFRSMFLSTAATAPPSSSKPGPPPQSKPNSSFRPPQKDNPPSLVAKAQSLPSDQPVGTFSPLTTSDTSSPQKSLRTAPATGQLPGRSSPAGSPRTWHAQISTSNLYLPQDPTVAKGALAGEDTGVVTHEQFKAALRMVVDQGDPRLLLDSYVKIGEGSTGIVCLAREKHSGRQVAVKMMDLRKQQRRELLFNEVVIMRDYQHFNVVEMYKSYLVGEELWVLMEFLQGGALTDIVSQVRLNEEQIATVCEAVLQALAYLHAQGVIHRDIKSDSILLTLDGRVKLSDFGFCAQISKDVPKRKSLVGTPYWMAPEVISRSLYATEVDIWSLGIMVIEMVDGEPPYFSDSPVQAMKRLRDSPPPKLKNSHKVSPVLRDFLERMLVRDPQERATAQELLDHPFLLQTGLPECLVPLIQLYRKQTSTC
Chain of CaMKI(h) (Q14012 whole entry): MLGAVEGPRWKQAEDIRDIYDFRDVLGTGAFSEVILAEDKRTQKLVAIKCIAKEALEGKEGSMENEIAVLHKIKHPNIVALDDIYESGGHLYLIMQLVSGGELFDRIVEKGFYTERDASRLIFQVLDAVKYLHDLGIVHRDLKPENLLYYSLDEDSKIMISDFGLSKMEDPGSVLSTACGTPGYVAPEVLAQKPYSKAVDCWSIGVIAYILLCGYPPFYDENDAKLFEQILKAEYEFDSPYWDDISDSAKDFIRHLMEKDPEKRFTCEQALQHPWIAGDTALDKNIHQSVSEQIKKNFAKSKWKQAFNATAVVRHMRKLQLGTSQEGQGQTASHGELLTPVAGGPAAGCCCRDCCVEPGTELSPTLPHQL
Chain of PAK3(h) (O75914 whole entry): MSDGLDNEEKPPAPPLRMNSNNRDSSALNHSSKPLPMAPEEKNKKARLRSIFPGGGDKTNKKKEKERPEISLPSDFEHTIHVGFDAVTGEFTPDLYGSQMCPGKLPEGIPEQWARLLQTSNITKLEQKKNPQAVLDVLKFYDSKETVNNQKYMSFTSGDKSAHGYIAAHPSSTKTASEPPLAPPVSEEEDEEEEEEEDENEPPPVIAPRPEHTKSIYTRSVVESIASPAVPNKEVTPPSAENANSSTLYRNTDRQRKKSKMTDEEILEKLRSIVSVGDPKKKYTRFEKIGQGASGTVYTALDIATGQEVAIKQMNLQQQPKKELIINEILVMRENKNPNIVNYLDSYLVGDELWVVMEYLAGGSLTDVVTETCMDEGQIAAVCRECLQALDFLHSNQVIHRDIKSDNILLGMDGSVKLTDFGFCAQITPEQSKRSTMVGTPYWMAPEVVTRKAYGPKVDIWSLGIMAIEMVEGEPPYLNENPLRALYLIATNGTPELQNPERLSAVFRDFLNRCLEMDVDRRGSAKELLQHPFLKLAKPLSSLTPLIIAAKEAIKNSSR
Chain of Met(h) (P08581 25-1390): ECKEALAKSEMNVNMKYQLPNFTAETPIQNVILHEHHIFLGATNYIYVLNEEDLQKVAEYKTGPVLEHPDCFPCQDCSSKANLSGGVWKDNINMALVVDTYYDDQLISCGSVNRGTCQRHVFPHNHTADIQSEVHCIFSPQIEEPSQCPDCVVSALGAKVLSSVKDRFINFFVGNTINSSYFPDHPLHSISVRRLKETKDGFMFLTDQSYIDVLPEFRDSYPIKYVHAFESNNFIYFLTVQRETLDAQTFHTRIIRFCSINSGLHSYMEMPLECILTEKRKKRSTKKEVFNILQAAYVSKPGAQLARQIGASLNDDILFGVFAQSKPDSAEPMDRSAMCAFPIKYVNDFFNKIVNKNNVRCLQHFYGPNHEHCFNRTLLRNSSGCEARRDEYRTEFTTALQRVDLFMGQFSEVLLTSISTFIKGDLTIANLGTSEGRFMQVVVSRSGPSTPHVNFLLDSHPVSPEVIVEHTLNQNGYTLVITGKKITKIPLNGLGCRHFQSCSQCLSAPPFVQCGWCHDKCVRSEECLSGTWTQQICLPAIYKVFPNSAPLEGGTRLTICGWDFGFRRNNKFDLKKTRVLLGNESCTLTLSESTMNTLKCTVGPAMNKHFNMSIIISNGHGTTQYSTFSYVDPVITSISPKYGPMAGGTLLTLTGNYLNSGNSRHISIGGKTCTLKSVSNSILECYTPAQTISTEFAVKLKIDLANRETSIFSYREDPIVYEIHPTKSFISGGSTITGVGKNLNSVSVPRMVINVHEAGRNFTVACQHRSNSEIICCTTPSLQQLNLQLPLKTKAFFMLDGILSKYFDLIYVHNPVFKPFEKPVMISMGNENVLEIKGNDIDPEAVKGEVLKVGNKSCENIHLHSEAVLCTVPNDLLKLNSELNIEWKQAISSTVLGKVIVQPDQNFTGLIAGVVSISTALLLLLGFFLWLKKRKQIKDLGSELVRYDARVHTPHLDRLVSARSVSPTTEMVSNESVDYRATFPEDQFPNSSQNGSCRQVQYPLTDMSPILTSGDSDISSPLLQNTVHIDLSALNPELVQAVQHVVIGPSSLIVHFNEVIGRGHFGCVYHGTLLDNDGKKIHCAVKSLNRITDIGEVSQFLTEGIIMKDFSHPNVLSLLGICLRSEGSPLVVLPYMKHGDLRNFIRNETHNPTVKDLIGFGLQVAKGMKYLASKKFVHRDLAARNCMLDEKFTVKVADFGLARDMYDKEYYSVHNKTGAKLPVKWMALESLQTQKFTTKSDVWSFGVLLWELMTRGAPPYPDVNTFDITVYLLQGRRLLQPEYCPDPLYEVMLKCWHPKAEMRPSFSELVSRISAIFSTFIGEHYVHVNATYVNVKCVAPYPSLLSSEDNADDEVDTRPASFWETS

## CC(C)CCC(=O)[C@]1(O)C(O)=C(C(=O)C(C)C)C(=O)[C@H]1CCC(C)C [TH2, tetrahydroiso-cohumulone]
PKCα(h); 1 μg/ml
  kinase inhibition: 103% of control
PKCα(h); 5 μg/ml
  kinase inhibition: 99% of control
PKCα(h); 25 μg/ml
  kinase inhibition: 98% of control
PKCα(h); 50 μg/ml
  kinase inhibition: 98% of control
PKCα(h); 100 μg/ml
  kinase inhibition: 71% of control
JAK3(h); 1 μg/ml
  kinase inhibition: 74% of control
JAK3(h); 5 μg/ml
  kinase inhibition: 67% of control
JAK3(h); 25 μg/ml
  kinase inhibition: 62% of control
JAK3(h); 50 μg/ml
  kinase inhibition: 53% of control
JAK3(h); 100 μg/ml
  kinase inhibition: 35% of control
ACK1(h); 1 μg/ml
  kinase inhibition: 117% of control
ACK1(h); 5 μg/ml
  kinase inhibition: 124% of control
ACK1(h); 25 μg/ml
  kinase inhibition: 97% of control
ACK1(h); 50 μg/ml
  kinase inhibition: 86% of control
ACK1(h); 100 μg/ml
  kinase inhibition: 81% of control
Met(h); 1 μg/ml
  kinase inhibition: 114% of control
Met(h); 5 μg/ml
  kinase inhibition: 113% of control
Met(h); 25 μg/ml
  kinase inhibition: 97% of control
Met(h); 50 μg/ml
  kinase inhibition: 83% of control
Met(h); 100 μg/ml
  kinase inhibition: 61% of control
CaMKI(h); 1 μg/ml
  kinase inhibition: 96% of control
CaMKI(h); 5 μg/ml
  kinase inhibition: 93% of control
CaMKI(h); 25 μg/ml
  kinase inhibition: 73% of control
CaMKI(h); 50 μg/ml
  kinase inhibition: 48% of control
CaMKI(h); 100 μg/ml
  kinase inhibition: 48% of control
PAK6(h); 1 μg/ml
  kinase inhibition: 85% of control
PAK6(h); 5 μg/ml
  kinase inhibition: 113% of control
PAK6(h); 25 μg/ml
  kinase inhibition: 90% of control
PAK6(h); 50 μg/ml
  kinase inhibition: 89% of control
PAK6(h); 100 μg/ml
  kinase inhibition: 42% of control
cKit(D816V)(h); 1 μg/ml
  kinase inhibition: 109% of control
cKit(D816V)(h); 5 μg/ml
  kinase inhibition: 105% of control
cKit(D816V)(h); 25 μg/ml
  kinase inhibition: 98% of control
cKit(D816V)(h); 50 μg/ml
  kinase inhibition: 82% of control
cKit(D816V)(h); 100 μg/ml
  kinase inhibition: 87% of control
MLCK(h); 1 μg/ml
  kinase inhibition: 98% of control
MLCK(h); 5 μg/ml
  kinase inhibition: 96% of control
MLCK(h); 25 μg/ml
  kinase inhibition: 105% of control
MLCK(h); 50 μg/ml
  kinase inhibition: 93% of control
MLCK(h); 100 μg/ml
  kinase inhibition: 86% of control
Abl(H396P)(h); 1 μg/ml
  kinase inhibition: 96% of control
Abl(H396P)(h); 5 μg/ml
  kinase inhibition: 103% of control
Abl(H396P)(h); 25 μg/ml
  kinase inhibition: 83% of control
Abl(H396P)(h); 50 μg/ml
  kinase inhibition: 65% of control
Abl(H396P)(h); 100 μg/ml
  kinase inhibition: 54% of control
PAK3(h); 1 μg/ml
  kinase inhibition: 103% of control
PAK3(h); 5 μg/ml
  kinase inhibition: 102% of control
PAK3(h); 25 μg/ml
  kinase inhibition: 49% of control
PAK3(h); 50 μg/ml
  kinase inhibition: 47% of control
PAK3(h); 100 μg/ml
  kinase inhibition: 40% of control
MSSK1(h); 1 μg/ml
  kinase inhibition: 105% of control
MSSK1(h); 5 μg/ml
  kinase inhibition: 84% of control
MSSK1(h); 25 μg/ml
  kinase inhibition: 43% of control
MSSK1(h); 50 μg/ml
  kinase inhibition: 50% of control
MSSK1(h); 100 μg/ml
  kinase inhibition: 39% of control
